The test system of assay [1] is Plasmodium falciparum. The assay can be described thus: Antiplasmodial activity against chloroquine-resistant Plasmodium falciparum W2 synchronized ring stage parasites infected in erythrocytes assessed as reduction in parasitemia after 48 hrs by Giemsa staining. In kind it is functional, organism-based. The settings on record: W2, 48 h.
Assay [2] is described as follows: Inhibition of Plasmodium falciparum recombinant falcipain-2 incubated for 30 mins at room temperature before addition of substrate benzoxycarbonyl-Leu-Arg-7-amino-4-methyl-coumarin by spectrofluorometry.
For assay [3], the system named is Plasmodium falciparum. Put plainly: Antiplasmodial activity against chloroquine-sensitive Plasmodium falciparum 3D7. The assay is classed as functional, organism-based.
In assay [4] the test system is Plasmodium falciparum. The assay can be described thus: Antiplasmodial activity against chloroquine and pyrimethamine-resistant Plasmodium falciparum V1/S. The assay is classed as functional, organism-based.
For assay [5], the system named is Plasmodium falciparum. The assay can be described thus: Antiplasmodial activity against atovaquone-resistant Plasmodium falciparum FCR3. In kind it is functional, organism-based.
Assay [6] concerns Plasmodium falciparum. Put plainly: Antiplasmodial activity against chloroquine-sensitive and mefloquine-resistant Plasmodium falciparum D6. The assay is classed as functional, organism-based.
Assay [7] in a line: Inhibition of Plasmodium chabaudi recombinant chabaupain expressed in Escherichia coli.
Assay [8] in a line: Inhibition of falcipain-2 in Plasmodium falciparum trophozoite extracts incubated for 30 mins at room temperature before addition of substrate benzyloxycarbonyl-Phe-Arg-7-amino-4-methyl-coumarin by spectrofluorometry.
Assay [9] has as its system Plasmodium falciparum. The assay can be described thus: Antiplasmodial activity against Plasmodium falciparum Itg2 synchronized ring stage parasites infected in erythrocytes assessed as reduction in parasitemia after 48 hrs by Giemsa staining. The assay is classed as functional, organism-based. The following applies: Itg2, 48 h.

Where only a bound is given, the exact number is not on record here.

Take `C[C@H]1[C@@H](OCc2ccc(C(=O)N[C@@H](Cc3ccccc3)C(=O)N[C@H](/C=C/S(C)(=O)=O)CCc3ccccc3)cc2)O[C@@H]2O[C@@]3(C)CC[C@H]4[C@H](C)CC[C@@H]1[C@@]24OO3`: the IC50 with Plasmodium falciparum [1] worked out at 4.81 nM; in assay [2], 21600 nM; with Plasmodium falciparum [3], 2.5 nM; in the assay with Plasmodium falciparum [4], 2.25 nM; with Plasmodium falciparum [5] it was 2 nM.

`C[C@@H]1CC[C@H]2[C@@H](C)C(=O)O[C@@H]3O[C@@]4(C)CC[C@@H]1[C@]32OO4` [ARTEMISININ]: the IC50 in the assay on Plasmodium falciparum [1] worked out at 12 nM; in the assay with Plasmodium falciparum [3] it was 9.71 nM; with Plasmodium falciparum [4], 4.24 nM; in the assay on Plasmodium falciparum [5], 5.38 nM.

As for `C[C@H]1[C@@H](OCc2ccc(C(=O)NCC(=O)N[C@H](/C=C/S(=O)(=O)c3ccccc3)Cc3ccccc3)cc2)O[C@@H]2O[C@@]3(C)CC[C@H]4[C@H](C)CC[C@@H]1[C@@]24OO3`, the IC50 in the assay on Plasmodium falciparum [6] was found to be 4.71 nM; with Plasmodium falciparum [1], 4.09 nM; in assay [2], 16500 nM; in the assay with Plasmodium falciparum [3], 3.11 nM; in the assay with Plasmodium falciparum [4] it was 1.59 nM; in [7], 56800 nM. Further, the IC50 in the assay on Plasmodium falciparum [5] turned out to be 1.75 nM.

`C[C@@H]1[C@H](OCc2ccc(C(=O)O)cc2)O[C@@H]2O[C@@]3(C)CC[C@@H]4[C@@H](C)CC[C@@H]1[C@]24OO3` (stereo in doubt) [ARTELINIC ACID]: the IC50 with Plasmodium falciparum [1] came to 5.66 nM.

`CC(C)C[C@H](NC(=O)N1CCOCC1)C(=O)N[C@H](/C=C/S(=O)(=O)c1ccccc1)CCc1ccccc1`: the half-inhibitory concentration (IC50) in assay [8] is 3 nM; in the assay with Plasmodium falciparum [9], 22 nM.

Take `CC(C)C[C@H](NC(=O)c1ccc(CO[C@H]2O[C@@H]3O[C@@]4(C)CC[C@H]5[C@H](C)CC[C@@H]([C@H]2C)[C@@]35OO4)cc1)C(=O)N[C@H](/C=C/S(=O)(=O)c1ccccc1)CCc1ccccc1`: the 50% inhibitory concentration (IC50) in the assay on Plasmodium falciparum [1] turned out to be 2.08 nM; in [2] it was 4950 nM; in assay [7], 2290 nM.

In the case of `CC(C)C[C@H](NC(=O)OC(C)(C)C)C(=O)N[C@H](/C=C/S(=O)(=O)c1ccccc1)CCc1ccccc1`, the IC50 is more than 10000 nM in the assay on Plasmodium falciparum [1] and 210 nM in assay [2].

For `CC(C)C[C@H](NC(=O)[C@H]1O[C@@H]1C(=O)O)C(=O)NCCCCN=C(N)N` [E-64], the IC50 in [2] is 84 nM; in [7], 9 nM.

Turning to `C[C@H]1[C@@H](OCc2ccc(C(=O)N[C@@H](Cc3ccccc3)C(=O)N[C@H](/C=C/S(=O)(=O)c3ccccc3)Cc3ccccc3)cc2)O[C@@H]2O[C@@]3(C)CC[C@H]4[C@H](C)CC[C@@H]1[C@@]24OO3`, the IC50 in the assay on Plasmodium falciparum [1] stood at 2.27 nM; in assay [2], 22400 nM; in assay [7], 400 nM.

For `C[C@H]1[C@@H](OCc2ccc(C(=O)N[C@@H](Cc3ccccc3)C(=O)N[C@H](/C=C/S(=O)(=O)c3ccccc3)CCc3ccccc3)cc2)O[C@@H]2O[C@@]3(C)CC[C@H]4[C@H](C)CC[C@@H]1[C@@]24OO3`, the IC50 in the assay with Plasmodium falciparum [1] amounted to 3.94 nM; in assay [2], 9220 nM; in [7], 538 nM.

On to `CC(C)C[C@H](NC(=O)c1ccc(CO[C@H]2O[C@@H]3O[C@@]4(C)CC[C@H]5[C@H](C)CC[C@@H]([C@H]2C)[C@@]35OO4)cc1)C(=O)N[C@H](/C=C/S(C)(=O)=O)CCc1ccccc1`, for which the IC50 with Plasmodium falciparum [6] amounted to 4.96 nM; in the assay on Plasmodium falciparum [1], 4.21 nM; in assay [2] it was 350 nM; in the assay with Plasmodium falciparum [3], 2.48 nM; in the assay on Plasmodium falciparum [4] it was 1.65 nM; with Plasmodium falciparum [5] it was 1.89 nM.
